# Results: patent US20050158385A1, “Coating technique for deposition of drug substance on a substrate” (priority 2002, published 2005)
# Test: in vitro release (dissolution) of tablets, USP II apparatus
# Assay type: physicochemical
# Settings: tablets from Trial 2 (three strands of PVDF as core), 250 ml 0.1 N HCl, 37° C., paddle 50 rpm
# Description: The dimensions of the tablets from both trials were similar, as both trials yielded tablets approximately 3 mm thick. To determine the dose of 2,3:4,5-bis-O-(1-methylethylidene)-β-D-fructopyranose sulfamate in each tablet, the tablet was dissolved in 10 ml H2O/0.1 N HCl 9/1 v/v. The concentration of 2,3:4,5-bis-O-(1-methylethylidene)-β-D-fructopyranose sulfamate was analyzed by HPLC (Waters System with Millenium Software, 2690 Alliance, Waters, Milford, Mass.). A sample of 50 uL is injected into a Zorbax Eclipse (HP, Palo Alto, Calif.) column (XDB-C8, 4.6*150 mm, P/N: 993967.906). The mobile phase consists of H2O/methanol 68/32 w/w at a flow rate of 1.5 mL/min. The concentration was determined with a refractive index detector (Sensitivity 32). The peak retention time is 6.7 minutes and the run takes 14 minutes.
# The in vitro release of the tablets made in this example was also determined. Four tablets from Trial 2 were placed in a USP II apparatus (SR8 plus, Hanson, Chatsworth, Calif.) containing 250 ml of 0.1 N HCl at 37° C. and a paddle rotating at 50 rpm. Dissolution was followed up to 1 hour, with samples taken after 5, 15, 30 and 60 minutes. An aliquot of 5 ml was filtered through a PTFE 0.2 micron filter. The sample was not replaced with fresh solvent. The concentration of 2,3:4,5-bis-O-(1-methylethylidene)-β-D-fructopyranose sulfamate was analyzed by HPLC as discussed above.
compound,measurement,setting,value
"CC1(C)O[C@@H]2[C@@H](CO[C@@]3(COS(N)(=O)=O)OC(C)(C)O[C@@H]23)O1 [2,3:4,5-bis-O-(1-methylethylidene)-β-D-fructopyranose sulfamate]","2,3:4,5-bis-O-(1-methylethylidene)-β-D-fructopyranose sulfamate released",after 5 minutes,approximately 4%
same,"2,3:4,5-bis-O-(1-methylethylidene)-β-D-fructopyranose sulfamate released",by 15 minutes,about 48%
same,"2,3:4,5-bis-O-(1-methylethylidene)-β-D-fructopyranose sulfamate released",in 30 minutes,complete release
